Six molecules from PMC10120512, “Benzenesulfonamide derivatives as Vibrio cholerae carbonic anhydrases inhibitors: a computational-aided insight in the structural rigidity-activity relationships” (Journal of Enzyme Inhibition and Medicinal Chemistry, 2023) can be followed below.

Molecules are shown by their SMILES.

Test [1] deals with clinical isolates of V. cholerae (SI-Vc22, SI-Vc71, SI-Vc912). Put plainly: Direct antibacterial activity, agar diffusion method. On all read-outs here: test concentration or dose not given here. The class given is cell-based. Particulars: for growth inhibition against at least one of the clinical isolates: 2 μL spot, 37 °C, 24 h; for inhibition zone diameter: all the isolates, data not shown. For orientation: Agar diffusion results depend on both activity and mobility in agar.

Another test has as its target VchγCA (Vibrio cholerae, UniProt Q9KVT1). Put plainly: biochemical.
In test [2] the test system is VchαCA. Put plainly: biochemical. The class given is biochemical. Particulars: for SI [ KI hCA I/KI VchαCA ]: selectivity index hCA I over VchαCA; for SI [ KI hCA II/KI VchαCA ]: selectivity index hCA II over VchαCA.
Test [3] deals with VchαCA (Vibrio cholerae, UniProt Q9KMP6). Put plainly: biochemical. It is filed as biochemical.
In another test the target is VchβCA (Vibrio cholerae, UniProt A0A086SLX8). Put plainly: biochemical.
Sequence of VchβCA (A0A086SLX8 entry or part of it): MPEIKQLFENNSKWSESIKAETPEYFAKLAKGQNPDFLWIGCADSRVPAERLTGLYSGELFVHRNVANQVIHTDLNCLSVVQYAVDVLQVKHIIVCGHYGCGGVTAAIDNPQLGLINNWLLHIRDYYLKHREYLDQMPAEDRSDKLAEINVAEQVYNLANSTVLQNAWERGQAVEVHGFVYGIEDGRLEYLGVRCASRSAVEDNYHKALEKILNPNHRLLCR

Sequence of VchγCA (Q9KVT1 1-184): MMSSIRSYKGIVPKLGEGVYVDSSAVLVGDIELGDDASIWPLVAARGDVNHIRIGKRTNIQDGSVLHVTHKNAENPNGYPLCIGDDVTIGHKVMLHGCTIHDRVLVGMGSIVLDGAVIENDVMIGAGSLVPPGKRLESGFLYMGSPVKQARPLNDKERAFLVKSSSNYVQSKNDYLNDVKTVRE
Sequence of VchαCA (Vibrio cholerae, UniProt Q9KMP6) (Q9KMP6 entry or part of it): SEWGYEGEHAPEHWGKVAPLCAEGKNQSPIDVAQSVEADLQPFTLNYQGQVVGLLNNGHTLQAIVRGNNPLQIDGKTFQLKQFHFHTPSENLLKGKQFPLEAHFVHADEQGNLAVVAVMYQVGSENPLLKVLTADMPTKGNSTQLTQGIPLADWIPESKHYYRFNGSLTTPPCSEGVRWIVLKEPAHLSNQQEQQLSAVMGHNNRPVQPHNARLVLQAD

Usually Ki stands for the equilibrium dissociation constant of an inhibitor or competing ligand from its target. High values mean lower affinity, low ones higher affinity. In the case of `NS(=O)(=O)c1ccc(NC(=O)CNc2ccc(Cl)cc2)cc1` [3b], in test [1], the “growth inhibition against at least one of the clinical isolates” value (from here on “growth inhibition against at least one”) is “moderate growth inhibition”. Moreover, the Ki came out at 86.9 µM at VchγCA, 0.066 µM on VchαCA [3] and 116 µM at VchβCA. In addition, the “SI [ KI hCA I/KI VchαCA ]” value with VchαCA [2] is recorded as 0.3. Besides, the “SI [ KI hCA II/KI VchαCA ]” value in the test with VchαCA [2] stood at 0.1.

As to `NS(=O)(=O)c1ccc(N2CCN(c3ccc(I)cc3)C2=O)cc1` [4c], the inhibition zone diameter in test [1] was 3–5 mm. Further, the Ki on VchγCA is 72.2 µM; at VchαCA [3], 0.013 µM; at VchβCA, 116 µM. In addition, the “SI [ KI hCA I/KI VchαCA ]” value in the test on VchαCA [2] came out at 7.1. In addition, the “SI [ KI hCA II/KI VchαCA ]” value in the test on VchαCA [2] was 1.0.

For `NS(=O)(=O)c1ccc(N2CCN(c3ccccc3F)C2=O)cc1` [6c], the inhibition zone diameter in test [1] is 3–5 mm. The Ki at VchγCA came out at 82.8 µM; at VchαCA [3], 0.0097 µM.

Take `CCCCN1CCN(c2ccc(S(N)(=O)=O)cc2)C1=O` [9c]: in test [1], the “growth inhibition against at least one” value was “moderate growth inhibition” and the inhibition zone diameter was 3–5 mm. The molecule further had a Ki on VchγCA of 54.9 µM. The “SI, selectivity with respect to human isoenzymes” value in the test on VchαCA [2] (VchαCA versus human isoenzymes (abstract)) is at least 90. In the test on VchαCA [2], the “SI [ KI hCA I/KI VchαCA ]” value was found to be 128.4 and the “SI [ KI hCA II/KI VchαCA ]” value is reported as 90.0. This molecule returned a Ki on VchαCA [3] of 0.0047 µM. Besides, at VchβCA, the Ki came to 113 µM.

Regarding `NS(=O)(=O)c1cccc(NC(=O)CNc2ccccc2)c1` [11b], in test [1], the “growth inhibition against at least one” value is given as “moderate growth inhibition”. Besides, in the test on VchαCA [2], the “SI [ KI hCA I/KI VchαCA ]” value was found to be 7.5 and the “SI [ KI hCA II/KI VchαCA ]” value was found to be 0.6. The same molecule came in with a Ki on VchαCA [3] of 0.0594 µM. On VchβCA, this molecule returned a Ki of 132 µM.

`NS(=O)(=O)c1cccc(NCCNc2ccc(Cl)cc2)c1` [13a]: the “growth inhibition against at least one” value in test [1] was “moderate growth inhibition”. For the same molecule, the figures for the Ki at VchγCA, on VchαCA [3] and at VchβCA were 5.6 µM, 0.0756 µM and 59.2 µM, respectively. For the same molecule, the “SI [ KI hCA I/KI VchαCA ]” value in the test with VchαCA [2] is 4.6. Moreover, the “SI [ KI hCA II/KI VchαCA ]” value in the test on VchαCA [2] is reported as 0.2.
